Data from patent US20150344407A1, “FENDILINE DERIVATIVES AND METHODS OF USE THEREOF” (THE BOARD OF REGENTS OF THE UNIVERSITY OF TEXAS SYSTEM, priority 2012, published 2015).
Structures can show the parent of a compound that is named as a salt.

Assays:
[1] = target: T1, GFP-tagged K-rasG12V (oncogenic K-ras) in MDCK cells (Homo sapiens, UniProt P01116, G12V); assay: K-ras mislocalization, confocal fluorescence microscopy with densitometric analysis; type: cell-based, canine; settings: 48 hours, MDCK cells stably expressing GFP-tagged K-rasG12V, normalized to vehicle-treated control; for inhibition at 4 µM: 4 μM compound, read-out: % Mislocalization of K-ras when treated with 4 μM compound
T1 construct: mGFP-tagged full length oncogenic mutant K-Ras (GFP-K-RasG12V); expressed in transfected cells
Protocol: FIGS. 1 & 2—Representative images showing degree of K-ras mislocalization with compound treatment (images corresponds with column 3 of Table 2). MDCK cells stably expressing GFP-tagged K-rasG12V were treated with vehicle or compound (4 μM) for 48 hours and fixed with 4% paraformaldehyde. The coverslips were mounted in Mowiol and imaged by confocal microscopy (Nikon A1) using a 60× objective. The number above each image corresponds the fendiline derivative code.
(§1) To determine the effect of compounds on localization of K-ras, Mardine Darby canine kidney epithelial (MDCK) cells stably expressing GFP-tagged K-rasG12V (oncogenic K-ras) grown on cover slips were treated with vehicle or compound (4 μM) for 48 hours and fixed with 4% paraformaldehyde. The coverslips were mounted in Mowiol and imaged by confocal microscopy (Nikon A1) using a 60× objective. Images were analyzed by ImageJ software. Densitometric analysis was performed on images to determine the degree of K-ras mislocalization. To determine the effect of compounds on K-ras function, MDCK cells stably expressing GFP-tagged K-rasG12V were treated with vehicle or compound (4 μM) for 48 hours. Following treatment, whole cell lysates were prepared and subjected SDS-PAGE and western blotting to quantify the level of phosphorylated ERK, a protein activated downstream of K-ras. All calculations were normalized to vehicle-treated control.
Fluorescence microscopy: 2×10^5 or 1×10^5 cells/well were seeded in 6- or 12-well cell culture plates, respectively, containing glass coverslips. 24 h after seeding, fresh medium containing 1% vehicle (Dimethyl sulfoxide, DMSO) or 4 μM test compound (1:100 dilution, such that DMSO was 1%) was added and incubated for 48 h, following which the cells were fixed with 4% paraformaldehyde and coverslips were mounted in Mowiol. Cells were imaged in the GFP wavelength (488 nm) using a confocal microscope (Nikon A1) with 60× objective. Images were saved in tagged imaged file format (tiff) and analyzed by ImageJ software. The densitometric ratio of plasma membrane localized K-Ras versus total K-Ras was calculated and normalized to vehicle-treated control.

[2] = system: phosphorylated ERK, a protein activated downstream of K-ras; assay: Western immunoblotting for pERK (inhibition of ERK activation); type: cell-based, canine; settings: Canis lupus familiaris; 4 μM compound, 48 hours, MDCK cells stably expressing GFP-tagged K-rasG12V; whole cell lysates; normalized to vehicle-treated control; read-out: % Inhibition of ERK activation when treated with 4 μM compound
Protocol: as §1
Western Immunoblotting for pERK: 2×10^5 cells/well were seeded in 6-well cell culture plates. 24 h after seeding, fresh medium containing 1% vehicle (DMSO) or 4 μM test compound (1:100 dilution, such that DMSO was 1%) was added and incubated for 48 h. Cells were lysed in Buffer B (50 mM Tris [pH 7.5], 75 mM NaCl, 25 mM NaF, 5 mM MgCl2, 5 mM EGTA, 1 mM dithiothreitol, 100 μM NaVO4, 1% Nonidet P-40 plus protease inhibitors). SDS-PAGE and immunoblotting with the anti-phospho-p44/42 mitogen-activated protein kinase (MAPK) (ERK1/2) antibody was performed using 20 μg of each whole cell lysate. Signal was detected by enhanced chemiluminescence (SuperSignal; Pierce, Thermo Fisher Scientific, Rockford, Ill.) and imaged by FluorChemQ (Alpha Inotech, San Leandro, Calif.). Quantification of intensities was performed using FluorChemQ software. Results were normalized to vehicle-treated control.

Row | Compound | inhibition at 4 µM [1] | inhibition at 4 µM [2] | % Mislocalization of K-ras when treated with 4 μM compound [1]
1 | C[C@H](OCC=C(c1ccccc1)c1ccccc1)c1ccccc1 [Compound 23, (S)-(3-(1-phenylethoxy)prop-1-ene-1,1-diyl)dibenzene] | 10.3% | -0.95% | –
2 | C[C@H](NCC=C(c1ccccc1)c1ccccc1)c1ccccc1 [Compound 17, (S)-3,3-diphenyl-N-(1-phenylethyl)prop-2-en-1-amine] | 8.27% | -51.9% | –
3 | C[C@@H](NC/C=C(\c1ccccc1)c1ccc(N)cc1)c1ccccc1 [Compound 56, (R,E)-4-(1-phenyl-3-((1-phenylethyl)amino)prop-1-en-1-yl)aniline] | 17.3% | -191% | –
4 | C[C@H](NCCC(c1ccccc1)c1ccccc1)c1ccccc1.Cl [Compound 09, (S)-3,3-diphenyl-N-(1-phenylethyl)propan-1-amine hydrochloride] | – | – | 20.41%
5 | C[C@@H](NC/C=C(/c1ccccc1)c1ccc([N+](=O)[O-])cc1)c1ccccc1 [Compound 49, (R,Z)-3-(4-nitrophenyl)-3-phenyl-N-(1-phenylethyl)prop-2-en-1-amine] | 20.1% | 36.8% | –
6 | C[C@@H](NCC=C(c1ccccc1)c1ccccc1)c1ccc(F)cc1 [Compound 45, (R)—N-(1-(4-fluorophenyl)ethyl)-3,3-diphenylprop-2-en-1-amine] | 50% | 43.5% | –
7 | COC(=O)[C@@H](NCC=C(c1ccccc1)c1ccccc1)c1ccccc1 [Compound 43, (S)-methyl 2-((3,3-diphenylallyl)amino)-2-phenylacetate] | 30.1% | 38.4% | –
8 | C[C@@H](NCC=C(c1ccccc1)c1ccccc1)c1ccc(Br)cc1 [Compound 44, (R)—N-(1-(4-bromophenyl)ethyl)-3,3-diphenylprop-2-en-1-amine] | 38.1% | 38.1% | –
9 | COC(=O)[C@H](NCC=C(c1ccccc1)c1ccccc1)c1ccc(F)cc1 [Compound 57, (R)-methyl 2-((3,3-diphenylallyl)amino)-2-(4-fluorophenyl)acetate] | 12.7% | -105% | –
10 | C[C@H](OC/C=C/c1ccccc1)c1ccccc1 [Compound 25, (S,E)-(1-(cinnamyloxy)ethyl)benzene] | 33.9% | 56.8% | –
11 | C[C@@H](NCC=C(c1ccccc1)c1ccccc1)c1ccc([N+](=O)[O-])cc1 [Compound 47] | 34% | 70.6% | –
12 | C[C@H](NC(=O)CC(c1ccccc1)c1ccccc1)c1ccccc1 [Compound 04, (S)-3,3-diphenyl-N-(1-phenylethyl)propanamide] | 9.73% | – | –
13 | O=C(CC(c1ccccc1)c1ccccc1)NCc1ccccc1 [Compound 05, N-benzyl-3,3-diphenylpropanamide] | 4.01% | – | –
14 | CC(OCCC(c1ccccc1)c1ccccc1)c1ccccc1 (stereo not drawn) [Compound 13] | 32% | 28.9% | –
15 | CC(CNCC(c1ccccc1)c1ccccc1)c1ccccc1 (stereo not drawn) [Compound 07, N-(2,2-diphenylethyl)-2-phenylpropan-1 amine hydrochloride] | 21.9% | – | –
16 | C[C@@H](NC/C=C/c1ccccc1)c1ccccc1 [Compound 18, (R,E)-3-phenyl-N-(1-phenylethyl)prop-2-en-1-amine] | 17.6% | -2.54% | –
17 | C[C@@H](OC/C=C/c1ccccc1)c1ccccc1 [Compound 24, (R,E)-(1-(cinnamyloxy)ethyl)benzene] | 18% | 7.19% | –
18 | C[C@@H](NCC=C(c1ccccc1)c1ccccc1)c1ccc(N)cc1 [Compound 48, (R)-4-(1-((3,3-diphenylallyl)amino)ethyl)aniline] | 28.2% | 53.5% | –

Row | Compound | inhibition at 4 µM [1] | inhibition at 4 µM [2] | % Mislocalization of K-ras when treated with 4 μM compound [1]
19 | CC(NCC=C(c1ccccc1)c1ccccc1)c1ccc(Br)cc1 (stereo not drawn) [Compound 26, N-(1-(4-bromophenyl)ethyl)-3,3-diphenylprop-2-en-1-amine] | 44.8% | 43.5% | –
20 | C[C@@H](NC/C=C/c1ccccc1)c1ccc2ccccc2c1 [Compound 35, (R,E)-N-(1-(naphthalen-2-yl)ethyl)-3-phenylprop-2-en-1-amine] | 26.1% | -21.6% | –
21 | CC[C@@H](NCC=C(c1ccccc1)c1ccccc1)c1ccccc1 [Compound 46, (R)-3,3-diphenyl-N-(1-phenylpropyl)prop-2-en-1-amine] | 37.5% | 54% | –
22 | C/C=C(/CN[C@H](C)c1ccccc1)c1ccccc1 [Compound 37, (R,E)-2-phenyl-N-(1-phenylethyl)but-2-en-1-amine] | 6.82% | 18.9% | –
23 | COC(=O)[C@@H](NC/C=C/c1ccccc1)c1ccccc1 [Compound 39, (S)-methyl 2-(cinnamylamino)-2-phenylacetate] | 6.72% | -10.2% | –
24 | CC(NCC=C(c1ccccc1)c1ccccc1)c1ccc(F)cc1 (stereo not drawn) [Compound 27, N-(1-(4-fluorophenyl)ethyl)-3,3-diphenylprop-2-en-1-amine] | 45.2% | 49.3% | –
25 | CC(NCC=C(c1ccccc1)c1ccccc1)c1ccccc1 (stereo not drawn) [Compound 12, 3,3-diphenyl-N-(1-phenylethyl)prop-2-en-1-amine hydrochloride] | 37.7% | 55.1% | –
26 | CCC(NCC=C(c1ccccc1)c1ccccc1)c1ccccc1 (stereo not drawn) [Compound 29, 3,3-diphenyl-N-(1-phenylpropyl)prop-2-en-1-amine hydrochloride] | 37% | 40.3% | –
27 | C[C@@H](NCCC(c1ccccc1)c1ccccc1)c1ccccc1.Cl [Compound 08, (R)-3,3-diphenyl-N-(1-phenylethyl)propan-1-amine hydrochloride] | – | 38.2% | 36.05%
28 | C[C@@H](NCC=C1c2ccccc2C=Cc2ccccc21)c1ccc(F)cc1 [Compound 58, (R)—N-(2 (5H-dibenzo[a,d][7]annulen-5-ylidene)ethyl)-1-(4-fluorophenyl) ethanamine] | 5.05% | -78.7% | –
29 | c1ccc(CNCCC(c2ccccc2)c2ccccc2)cc1 [Compound 10, N-benzyl-3,3-diphenylpropan-1-amine] | 20.2% | – | –
30 | C[C@@H](NCC1CCCCC1)c1ccccc1 [Compound 38, (R)—N-(cyclohexylmethyl)-1-phenylethanamine] | 9.67% | 32.7% | –
31 | CC(NC(=O)CCc1ccccc1)c1ccccc1 (stereo not drawn) [Compound 06, 3-phenyl-N-(1-phenylethyl)propanamide] | 28.9% | – | –
32 | CC(NC(=O)CC(c1ccccc1)c1ccccc1)c1cccs1 (stereo not drawn) [Compound 14, 3,3-diphenyl-N-(1-(thiophen-2-yl)ethyl)propanamide] | 23.3% | – | –
33 | C[C@@H](NC(=O)CC(c1ccccc1)c1ccccc1)c1ccccc1 [Compound 03, (R)-3,3-diphenyl-N-(1-phenylethyl)propanamide] | 25.8% | – | –
34 | CC(C(=O)NCC(c1ccccc1)c1ccccc1)c1ccccc1 (stereo not drawn) [Compound 02] | 13.2% | – | –
35 | CC(NCCC(c1ccccc1)c1ccccc1)c1cccs1 (stereo not drawn) [Compound 15, 3,3-diphenyl-N-(1-(thiophen-2-yl)ethyl)propan-1-amine hydrochloride] | 25.1% | – | –
